This assay concerns the target Human immunodeficiency virus type 1 protease (Human immunodeficiency virus 1, UniProt Q72874). As to the kind of experiment: binding affinity towards HIV-1 Protease enzyme.

Molecules are shown by their SMILES.

For orientation: Ki means a dissociation constant, usually derived from enzyme kinetics or from competition with a known ligand. Low readings indicate a stronger hold on the target, high ones a looser hold on the target. `CC[C@H](C)[C@@H]1NC(=O)[C@@H](NC(=O)[C@@H]2Cc3ccc(cc3)OCCCCC(=O)N[C@@H](C(C)C)C(=O)N2)Cc2ccc(cc2)OCCCNC1=O` gave a Ki of 800 nM.

`CC[C@H](C)[C@@H]1NC(=O)[C@@H](C(N)C[C@@H](O)C(Cc2ccccc2)NC(=O)OC(C)(C)C)Cc2ccc(cc2)OCCCNC1=O` (stereo partly drawn) came in with an inhibition constant (Ki) of 4 nM.

`CC[C@@H](C)[C@H](NC(=O)[C@H](Cc1ccccc1)NC(=O)[C@H](Cc1ccccc1)NC(=O)[C@@H](NC(=O)[C@H](CC(C)C)NC(C)=O)C(C)C)C(=O)N[C@H](C(N)=O)C(C)C` returned an inhibition constant (Ki) of 60000 nM.

With `CC[C@H](C)[C@@H]1NC(=O)[C@@H](C(N)C[C@@H](O)[C@@H]2Cc3ccc(cc3)OCCCCC(=O)N[C@@H](C(C)C)C(=O)N2)Cc2ccc(cc2)OCCCNC1=O` (stereo partly drawn), the affinity, expressed as Ki, was 3 nM.

In turn, `CC(C)C[C@H](CC(=O)NO)C(=O)N[C@H]1Cc2cn(c3ccccc23)CCCCCCNC1=O` returned an inhibitory constant (Ki) of 1 nM. Compared with the last compound, the Ki is about 3-fold lower.

As for `CC[C@H](C)[C@H](NC(=O)[C@H](Cc1ccccc1)NC[C@H](O)[C@@H]1Cc2ccc(cc2)OCCCC(=O)N[C@@H](CC(N)=O)C(=O)N1)C(=O)N[C@H](C(N)=O)C(C)C`, the affinity corresponds to a Ki of 12 nM.

For the compound `N=C(N)NCCC[C@H]1NC(=O)[C@@H]2CCCN2C(=O)[C@@H](NC=O)CNC(=O)/C=C/C(Cc2ccc(O)cc2)NC(=O)[C@@H](Cc2ccccc2)NC(=O)C1=O` (stereo partly drawn), the Ki came to 10 nM.

Turning to `CC(C)C[C@@H](NC(=O)[C@H](O)COS(=O)(=O)O)C(=O)N[C@@H]1C(=O)N[C@@H](CCCNC(=N)N)C(=O)N[C@H]2CC[C@H](O)N(C2=O)[C@@H](CC(C)C)C(=O)N(C)[C@H](Cc2ccc(O)cc2)C(=O)N[C@H](C(C)C)C(=O)O[C@@H]1C` [PROTEOLYTIC ENZYME INHIBITOR], the Ki stood at 1 nM.

The values above are taken from ChEMBL document CHEMBL1132991, “Conformational selection of inhibitors and substrates by proteolytic enzymes: implications for drug design and polypeptide processing” (J Med Chem, 2000).
